Where two headings read alike, the source gives them in different places.
System: Pyricularia oryzae
Format: in vivo
Conditions: individual active compound, protective, rice leaves, evaluated 6 days after inoculation, untreated 89% infection

SMILES | Efficacy in % of the untreated control (1 ppm in the spray liquor) [%] | Efficacy in % of the untreated control (16 ppm in the spray liquor) [%] | Efficacy in % of the untreated control (4 ppm in the spray liquor) [%]
CC1CCN(c2c(-c3c(F)cc(F)cc3F)c(Cl)nc3ncnn23)CC1 [I, 5-chloro-7-(4-methylpiperidin-1-yl)-6-(2,4,6-trifluorophenyl)-[1,2,4]tri-azolo[1,5-a]pyrimidine] | 10 | 32 | –
COC(=O)Nc1nc2ccccc2[nH]1 [II, methyl (1 H-benzoimidazol-2-yl)carbamate] | – | 32 | 0

From patent US20070129384A1 (priority 2003, published 2007)
